Data taken from patent publication US20240217957A1, “HETEROCYCLIC COMPOUND AND USE THEREOF” (TAKEDA PHARMACEUTICAL COMPANY LIMITED, priority 2022, published 2024).

Each compound was assayed against T1, human OX2 receptor (Homo sapiens, UniProt O43614) (assay: Measurement of orexin type 2 receptor agonist activity (calcium fluorescence, Fluo-4 AM, FDSS)). Conditions: compound at 3 μM; CHO cells forcibly expressing human OX2 receptor; DMSO = 0%, 10 nM orexin A (human) = 100%.
T1 construct: expressed in transfected cells
T1 sequence (O43614 1-444): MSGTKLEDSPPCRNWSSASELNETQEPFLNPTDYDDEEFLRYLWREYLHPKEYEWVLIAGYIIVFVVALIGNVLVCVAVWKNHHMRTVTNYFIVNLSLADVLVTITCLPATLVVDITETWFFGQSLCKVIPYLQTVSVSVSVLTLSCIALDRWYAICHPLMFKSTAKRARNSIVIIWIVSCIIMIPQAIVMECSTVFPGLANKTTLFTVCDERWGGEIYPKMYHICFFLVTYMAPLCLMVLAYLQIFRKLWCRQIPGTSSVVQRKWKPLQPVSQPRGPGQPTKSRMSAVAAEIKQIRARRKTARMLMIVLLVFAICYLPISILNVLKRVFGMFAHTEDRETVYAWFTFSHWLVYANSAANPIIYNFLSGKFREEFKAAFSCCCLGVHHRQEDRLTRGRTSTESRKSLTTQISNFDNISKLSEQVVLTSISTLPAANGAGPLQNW
Type: cell-based
Method: In order to obtain cell clones that stably express human orexin type 2 receptor, human orexin type 2 (residues 1-444, NCBI Reference Sequence: AK314279) was constructed in a pcDNA3.1 (+) vector (Invitrogen) to express in mammalian cells. This plasmid DNA was transfected into CHO-K1 cells by electroporation, and stable clones were obtained by limiting dilution using resistance to G418 as a selection marker.
CHO cells in which human OX2 receptor was forcibly expressed were seeded at 10,000 cells/well into a 384-well black transparent bottom plate (BD falcon), and were incubated at 37° C., 5% CO2 for 1 day after incubation at room temperature for 30 minutes. After removing the cell plate medium, assay buffer containing calcium indicator A (HBSS (Thermo Fisher Scientific), 20 mM HEPES (Thermo Fisher Scientific), 0.1% BSA (Sigma-Aldrich), 2.5 μg/mL Fluo-4 AM (Dojin Kagaku), 0.08% Pluronic F127 (Dojin Kagaku), 1.25 mM probenecid (Dojin Kagaku)) was added at 30 μL/well. After incubation in a 5% CO2 incubator at 37° C. for 30 minutes, it was incubated at room temperature for another 30 minutes. Add 10 μL/well of the test compound diluted with assay buffer B (HBSS, 20 mM HEPES, 0.1% BSA), and use FDSS uCELL (Hamamatsu Photonics) to measure the fluorescence value every 1 second for 1 minute, and then every 2 seconds for […]. It was measured for 1 minute and 40 seconds. The amount of fluorescence value when DMSO is added instead of the test compound is defined as 0%, and the amount of fluorescence value when orexin A (human) (Peptide Institute) with a final concentration of 10 nM is added is defined as 100%. The activity (%) of the test compound was calculated.

SMILES | OX2R agonist activity (3 μM, %) [%]
Cc1cnc([C@@H]2CC(N3C[C@@H](NS(C)(=O)=O)[C@@](C)(F)C3)=NO2)c(-c2c(F)cccc2F)c1 (mixture of isomers) [Example 51, mixture of N-[(3R,4S)-1-{(5S)-5-[3-(2,6-difluorophenyl)-5-methylpyridin-2-yl]-4,5-dihydro-1,2-oxazol-3-yl}-4-fluoro-4-methylpyrrolidin-3-yl]methanesulfonamide and N-[(3S,4R)-1-{(5S)-5-[3-(2,6-difluorophenyl)-5-methylpyridin-2-yl]-4,5-dihydro-1,2-oxazol-3-yl}-4-fluoro-4-methylpyrrolidin-3-yl]methanesulfonamide] | 99
Cc1cnc([C@@H]2CC(O[C@@H]3CC[C@H](NS(C)(=O)=O)C3)=NO2)c(-c2c(F)cc(F)cc2F)c1 (mixture of isomers) [Example 62, mixture of N-[(1R,3S)-3-({(5S)-5-[5-methyl-3-(2,4,6-trifluorophenyl)pyridin-2-yl]-4,5-dihydro-1,2-oxazol-3-yl}oxy)cyclopentyl]methanesulfonamide and N-[(1S,3R)-3-({(5S)-5-[5-methyl-3-(2,4,6-trifluorophenyl)pyridin-2-yl]-4,5-dihydro-1,2-oxazol-3-yl}oxy)cyclopentyl]methanesulfonamide] | 17
Cc1cnc([C@@H]2CC(N3C[C@@H](C)[C@H](NS(C)(=O)=O)C3)=NO2)c(-c2c(F)cccc2F)c1 (single isomer, unassigned) [Example 71, optical isomer of N-[(3S,4R)-1-{(5S)-5-[3-(2,6-difluorophenyl)-5-methylpyridin-2-yl]-4,5-dihydro-1,2-oxazol-3-yl}-4-methylpyrrolidin-3-yl]methanesulfonamide or N-[(3R,4S)-1-{(5S)-5-[3-(2,6-difluorophenyl)-5-methylpyridin-2-yl]-4,5-dihydro-1,2-oxazol-3-yl}-4-methylpyrrolidin-3-yl]methanesulfonamide] | 108
Cc1cnc([C@@H]2CC(N3C[C@@H](NS(C)(=O)=O)[C@@](C)(F)C3)=NO2)c(-c2c(F)cc(F)cc2F)c1 (single isomer, unassigned) [Example 75, optical isomer of N-[(3R,4S)-4-fluoro-4-methyl-1-{(5S)-5-[5-methyl-3-(2,4,6-trifluorophenyl)pyridin-2-yl]-4,5-dihydro-1,2-oxazol-3-yl}pyrrolidin-3-yl]methanesulfonamide or N-[(3S,4R)-4-fluoro-4-methyl-1-{(5S)-5-[5-methyl-3-(2,4,6-trifluorophenyl)pyridin-2-yl]-4,5-dihydro-1,2-oxazol-3-yl}pyrrolidin-3-yl]methanesulfonamide] | 105
Cc1cnc([C@@H]2CC(N3C[C@H](F)[C@H](NS(=O)(=O)C4(F)CC4)C3)=NO2)c(-c2c(F)cc(F)cc2F)c1 (single isomer, unassigned) [Example 107, optical isomer of 1-fluoro-N-[(3R,4S)-4-fluoro-1-{(5S)-5-[5-methyl-3-(2,4,6-trifluorophenyl)pyridin-2-yl]-4,5-dihydro-1,2-oxazol-3-yl}pyrrolidin-3-yl]cyclopropane-1-sulfonamide or 1-fluoro-N-[(3S,4R)-4-fluoro-1-{(5S)-5-[5-methyl-3-(2,4,6-trifluorophenyl)pyridin-2-yl]-4,5-dihydro-1,2-oxazol-3-yl}pyrrolidin-3-yl]cyclopropane-1-sulfonamide] | 98
Cc1cnc([C@@H]2CC(N3C[C@H](F)[C@H](NS(=O)(=O)C4(F)CC4)C3)=NO2)c(-c2c(F)cccc2F)c1 (single isomer, unassigned) [Example 117, optical isomer of N-[(3R,4S)-1-{(5S)-5-[3-(2,6-difluorophenyl)-5-methylpyridin-2-yl]-4,5-dihydro-1,2-oxazol-3-yl}-4-fluoropyrrolidin-3-yl]-1-fluorocyclopropane-1-sulfonamide or N-[(3S,4R)-1-{(5S)-5-[3-(2,6-difluorophenyl)-5-methylpyridin-2-yl]-4,5-dihydro-1,2-oxazol-3-yl}-4-fluoropyrrolidin-3-yl]-1-fluorocyclopropane-1-sulfonamide] | 105
C[C@]1(F)CN(C2=NOC(c3c(F)cccc3-c3c(F)cccc3F)C2)C[C@H]1NS(C)(=O)=O (single isomer, unassigned) [Example 155, N-{(3R,4S)-4-fluoro-4-methyl-1-[5-(2′,3,6′-trifluoro[1,1′-biphenyl]-2-yl)-4,5-dihydro-1,2-oxazol-3-yl]pyrrolidin-3-yl}methanesulfonamide or N-{(3S,4R)-4-fluoro-4-methyl-1-[5-(2′,3,6′-trifluoro[1,1′-biphenyl]-2-yl)-4,5-dihydro-1,2-oxazol-3-yl]pyrrolidin-3-yl)methanesulfonamide] | 99
C[C@]1(F)CN(C2=NOC(c3c(F)cc(F)cc3-c3c(F)cccc3F)C2)C[C@H]1NS(C)(=O)=O (single isomer, unassigned) [Example 164] | 97
C[C@]1(F)CN(C2=NOC(c3c(F)ccc(F)c3-c3c(F)cccc3F)C2)C[C@H]1NS(C)(=O)=O (single isomer, unassigned) [Example 168] | 103
CS(=O)(=O)N[C@H]1CCN(C2=NOC(c3ccccc3-c3c(F)cccc3F)C2)C1 (stereo partly drawn) [Example 1, N-{(3S)-1-[5-(2′,6′-difluoro[1,1′-biphenyl]-2-yl)-4,5-dihydro-1,2-oxazol-3-yl]pyrrolidin-3-yl}methanesulfonamide] | 103
CS(=O)(=O)N[C@H]1CCN(C2=NOC(c3ccccc3C3=CCCCC3)C2)C1 (stereo partly drawn) [Example 2, N-{(3S)-1-[5-(2′,3′,4′,5′-tetrahydro[1,1′-biphenyl]-2-yl)-4,5-dihydro-1,2-oxazol-3-yl]pyrrolidin-3-yl}methanesulfonamide] | 77
CCS(=O)(=O)N[C@H]1CCN(C2=NOC(c3ccccc3-c3c(F)cccc3F)C2)C1 (stereo partly drawn) [Example 3, N-{(3S)-1-[5-(2′,6′-difluoro[1,1′-biphenyl]-2-yl)-4,5-dihydro-1,2-oxazol-3-yl]pyrrolidin-3-yl}ethanesulfonamide] | 95
CS(=O)(=O)N[C@@H]1CN(C2=NOC(c3ccccc3-c3c(F)cccc3F)C2)CC1(F)F (stereo partly drawn) [Example 4, N-{(3R)-1-[5-(2′,6′-difluoro[1,1′-biphenyl]-2-yl)-4,5-dihydro-1,2-oxazol-3-yl]-4,4-difluoropyrrolidin-3-yl}methanesulfonamide] | 104
CS(=O)(=O)N[C@H]1CCCN(C2=NOC(c3ccccc3-c3c(F)cccc3F)C2)CC1 (stereo partly drawn) [Example 5, N-{(4S)-1-[5-(2′,6′-difluoro[1,1′-biphenyl]-2-yl)-4,5-dihydro-1,2-oxazol-3-yl]azepan-4-yl}methanesulfonamide] | 106
CS(=O)(=O)N[C@H]1CCCN(C2=NOC(c3ccccc3-c3c(F)cccc3F)C2)C1 (stereo partly drawn) [Example 6, N-{(3S)-1-[5-(2′,6′-difluoro[1,1′-biphenyl]-2-yl)-4,5-dihydro-1,2-oxazol-3-yl]piperidin-3-yl}methanesulfonamide] | 98
CS(=O)(=O)NC1CCN(C2=NOC(c3ccccc3-c3c(F)cccc3F)C2)CC1 (stereo not drawn) [Example 7, N-{1-[5-(2′,6′-difluoro[1,1′-biphenyl]-2-yl)-4,5-dihydro-1,2-oxazol-3-yl]piperidin-4-yl}methanesulfonamide] | 53
CCS(=O)(=O)N[C@H]1CCN(C2=NOC(c3ccc(C)cc3-c3c(F)cccc3F)C2)C1 (stereo partly drawn) [Example 8, N-{(3S)-1-[5-(2′,6′-difluoro-5-methyl[1,1′-biphenyl]-2-yl)-4,5-dihydro-1,2-oxazol-3-yl]pyrrolidin-3-yl}ethanesulfonamide] | 104
CCS(=O)(=O)N[C@H]1CCN(C2=NOC(c3cc(C(F)(F)F)nn3-c3c(F)cccc3F)C2)C1 (stereo partly drawn) [Example 9, N-[(3S)-1-{5-[1-(2,6-difluorophenyl)-3-(trifluoromethyl)-1H-pyrazol-5-yl]-4,5-dihydro-1,2-oxazol-3-yl}pyrrolidin-3-yl]ethanesulfonamide] | 13
